Laboratory results: patent US11964938B2, “3-phenyl-4-hexynoic acid derivatives as GPR40 agonists” (CELON PHARMA S.A., priority 2018, dated 2024)

How the values were obtained:
human GPR40 receptor = target: T1, human GPR40 receptor (Homo sapiens, UniProt O14842); assay: Analysis of receptor activation - calcium ions concentration measurement (aequorin luminescence); format: cell-based; details: enhancement or decrease of activity in relation to reference TAK-875, from EC50 values
T1 construct: host or cells: CHO-K1 (co-expressing aequorin)
T1 sequence (O14842 whole entry): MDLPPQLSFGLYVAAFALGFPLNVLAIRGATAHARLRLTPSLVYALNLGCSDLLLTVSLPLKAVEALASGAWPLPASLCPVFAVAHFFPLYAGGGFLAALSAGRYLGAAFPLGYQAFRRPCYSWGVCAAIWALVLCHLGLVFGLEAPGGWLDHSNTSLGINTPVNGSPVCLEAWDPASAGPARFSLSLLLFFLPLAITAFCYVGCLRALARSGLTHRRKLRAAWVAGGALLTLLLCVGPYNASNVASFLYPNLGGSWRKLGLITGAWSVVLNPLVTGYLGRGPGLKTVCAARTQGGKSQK
Source text: Experiment B1: Analysis of Receptor Activation—Calcium Ions Concentration Measurement.
As a result of the measurement, luminescence change in the time curve were obtained, the integration of which allowed to calculate the relative amount of calcium ions released to cytosol. […] Curves plotted from obtained results allowed to determine EC50 values.

[1] = tested on: Wistar HAN Crl:WI (HAN) rats; assay: Glucose tolerance test in vivo on rats; set-up: species or system rat; details: 10 mg/kg oral single dose, blood; for AUC for glucose (0-540 min.): i.p. glucose bolus at t=0 and 6 h; for AUC for insulin (0-180 min.): i.p. glucose bolus
Experimental: Experiment B3: Glucose Tolerance Test In Vivo on Rats.
To evaluate glucose lowering effect of the compounds in in vivo study, glucose tolerance test (GTT) was performed. The study was performed on male outbred Wistar HAN Crl:WI (HAN) rats from Charles River, weight about 250-300 g, 8-10 weeks old. Rats were starved for 12 hours (with free access to water).
At time point t=0 animals were given orally a single dose of a compound (by a gastric tube) and immediately (t=0) and after 6 hour (t=6 h) intraperitoneal (i.p.) glucose bolus ([…]). At time points t=0 (just before oral administration of the compounds and intraperitoneal glucose administration), 0.25, 0.5, 1, 2, 2.5, 3, 6, 6.25, 7, 8, and 9 h blood samples from tail vein were collected from each animal for glucose level determination using Accu-chek glucometer (Roche Diagnostics) and additionally at t=0.25, 0.5, 1, 2, 2.5, and 3 h blood samples from tail vein were collected for insulin level measurement using ELISA test (Mercodia).
Tested compound were prepared in 5% DMSO/40% PEG300/55% PBS vehicle and administered at the dose of 10 mg/kg body weight in a volume of 0.5 ml/100 g body weight. After 4 hours after tested compound administration animals were given standard diet to the cages. Decrease of AUC value for glucose level in blood was calculated and the results for selected compounds of the invention are presented in Table 5. Analysis was performed using GraphPad prism software.

[2] = tested on: MIN6 (mouse insulinoma) cells; assay: Glucose-dependent insulin release in mouse insulinoma cells (MIN6); format: cell-based; details: multiplicity of insulin efflux increase in relation to control; 10 uM compound, 20 mM glucose, 1 hour
Experimental: Experiment B2: Glucose-Dependent Insulin Release in Mouse Insulinoma Cells (MIN6).
MIN6 (mouse insulinoma) cells were seeded on a plate covered with PDL (poly-D-lysine) at 5×10^5/well and cultured for 48 hours. […] Tested compounds, after dilution to the concentration of 10-40 uM in KRBH buffer with the addition of 20 mM glucose, were added to the cells and incubated for 1 hour to induce insulin release. Negative control was KRBH buffer with the addition of 2 mM glucose. Concentration of released insulin was determined using ELISA test (Mercodia).
Table 4 present MIN6Insulin @10 uM values for representative compounds of the invention. MIN6Insulin @10 uM value is a multiplicity of insulin efflux increase in relation to control experiment, following addition of 10 uM of tested compound.

[3] = I phase of clinical trials; cited from earlier work
[4] = tested on: diabetes STZ-treated mice; assay: Von Frey test on diabetes STZ-treated mice (tactile allodynia); format: in vivo, mouse; details: 60 minutes after administration, mean of group
Experimental: Experiment B5: Von Frey Test on Diabetes STZ-Treated Mice.
Tactile allodynia was assessed by electronic von Frey apparatus (Bioseb) equipped with a flexible filament. Reaction to stimuli was assessed using growing applied pressure (from 0 to 10 g) on a plantar side of the hind foot of mice. Pregabalin was a control, as reference healthy mice with preserved normal response to the stimuli were used. In the day of the experiment, mice were placed separately in cages with a wire mesh bottom for 1 h for habituation to experimental conditions. After habituation period, each mouse was treated 3 times alternately, with 30 s intervals between each measurement, to obtain starting values (before administration of the compound) of pain sensitivity. […] The results are presented in Table 7 as mean value for all mice in a given group (n=7-10).

| SMILES | % PTAK-875 (human GPR40 receptor) | other results |
| --- | --- | --- |
| CC#C[C@@H](CC(=O)O)c1ccc(OC(C)C(C)C)cc1 (mixture of isomers) [Example F13, (3S)-3-(4-{[(2R/S)-3-methylbutan-2-yl]oxy}phenyl)hex-4-ynoic acid] | A (>120% PTAK-875) |  |
| CC#C[C@@H](CC(=O)O)c1ccc(OCC(C)C(C)C)cc1 (mixture of isomers) [Example F37, (3S)-3-{4-[(2R/S)-2,3-dimethylbutoxy]phenyl}hex-4-ynoic acid] | A (>120% PTAK-875) |  |
| CC#C[C@@H](CC(=O)O)c1ccc(OCCC(C)CC)cc1 (mixture of isomers) [Example F38, (3S)-3-(4-{[(3R/S)-3-methylpentyl]oxy}phenyl)hex-4-ynoic acid] | B (81-120% PTAK-875) |  |
| CC#CC(CC(=O)O)c1ccc(OC/C=C(\C)CC/C=C(\C)CCC=C(C)C)cc1 (racemic) [Example F11, (3R/S)-3-(4-{[(2E,6E)-3,7,11-trimethyldodeca-2,6,10-trien-1-yl]oxy}-phenyl)hex-4-ynoic acid] | D (21-50% PTAK-875) |  |
| CC#CC(CC(=O)O)c1ccc(OCC(C)(C)C)cc1 (racemic) [Example F26, (3R/S)-3-[4-(2,2-dimethylpropoxy)phenyl]hex-4-ynoic acid] | E (<20% PTAK-875) |  |
| CC#C[C@@H](CC(=O)O)c1ccc(OCCC)cc1 [Example F1, (3S)-3-(4-propoxyphenyl)hex-4-ynoic acid] | D (21-50% PTAK-875) |  |
| CC#C[C@@H](CC(=O)O)c1ccc(OCCCC)cc1 [Example F2, (3S)-3-(4-butoxyphenyl)hex-4-ynoic acid] | A (>120% PTAK-875) |  |
| CC#C[C@@H](CC(=O)O)c1ccc(OCCCCCC)cc1 [Example F4, (3S)-3-[4-(hexyloxy)phenyl]hex-4-ynoic acid] | A (>120% PTAK-875) |  |
| CC#C[C@@H](CC(=O)O)c1ccc(OCCCCCCC)cc1 [Example F5, (3S)-3-[4-(heptyloxy)phenyl]hex-4-ynoic acid] | A (>120% PTAK-875) |  |
| CC#C[C@@H](CC(=O)O)c1ccc(OC/C=C(\C)CCC=C(C)C)cc1 [Example F6, (3S)-3-(4-{[(2E)-3,7-dimethylocta-2,6-dien-1-yl]oxy}phenyl)hex-4-ynoic acid] |  | AUC for glucose (0-540 min.) [1]: 25184.1; AUC for insulin (0-180 min.) [1]: 492.5 |
| CC#C[C@@H](CC(=O)O)c1ccc(OC(CC)CC)cc1 [Example F17, (3S)-3-[4-(pentan-3-yloxy)phenyl]hex-4-ynoic acid] | E (<20% PTAK-875) |  |
| CC#C[C@@H](CC(=O)O)c1ccc(OC/C=C/CCC)cc1 [Example F18, (3S)-3-{4-[(2E)-hex-2-en-1-yloxy]phenyl}hex-4-ynoic acid] | A (>120% PTAK-875) |  |
| CC#C[C@@H](CC(=O)O)c1ccc(OC/C=C/C=C/C)cc1 [Example F19, (3S)-3-{4-[(2E,4E)-hexa-2,4-dien-1-yloxy]phenyl}hex-4-ynoic acid] | A (>120% PTAK-875) |  |
| C=CCCCOc1ccc([C@@H](C#CC)CC(=O)O)cc1 [Example F20, (3S)-3-[4-(pent-4-en-1-yloxy)phenyl]hex-4-ynoic acid] | B (81-120% PTAK-875) |  |
| CC#CCCOc1ccc([C@@H](C#CC)CC(=O)O)cc1 [Example F21, (3S)-3-[4-(pent-3-yn-1-yloxy)phenyl]hex-4-ynoic acid] | C (51-80% PTAK-875) |  |
| CC#C[C@@H](CC(=O)O)c1ccc(OCC#CCC)cc1 [Example F22, (3S)-3-[4-(pent-2-yn-1-yloxy)phenyl]hex-4-ynoic acid] | C (51-80% PTAK-875) |  |
| CC#C[C@@H](CC(=O)O)c1ccc(OCCC(C)C)cc1 [Example F24, (3S)-3-[4-(3-methylbutoxy)phenyl]hex-4-ynoic acid] |  | MIN6Insulin @10 uM [2]: 2.627; AUC for glucose (0-540 min.) [1]: 24289.7; AUC for insulin (0-180 min.) [1]: 329.0; melting point: 26.4 to 27.1 °C |
| CC#C[C@@H](CC(=O)O)c1ccc(OCCC(C)(C)C)cc1 [Example F27, (3S)-3-[4-(3,3-dimethylbutoxy)phenyl]hex-4-ynoic acid] | D (21-50% PTAK-875) |  |
| CC#C[C@@H](CC(=O)O)c1ccc(OCC=C(C)C)cc1 [Example F28, (3S)-3-{4[(3-methylbut-2-en-1-yl)oxy]phenyl}hex-4-ynoic acid] |  | MIN6Insulin @10 uM [2]: 2.782; AUC for glucose (0-540 min.) [1]: 28377.4; AUC for insulin (0-180 min.) [1]: 499.2; melting point: 52.1 to 53.1 °C |
| C=C(C)CCOc1ccc([C@@H](C#CC)CC(=O)O)cc1 [Example F30, (3S)-3-{4[(3-methylbut-3-en-1-yl)oxy]phenyl}hex-4-ynoic acid] | A (>120% PTAK-875) |  |
| CC#C[C@@H](CC(=O)O)c1ccc(OCC(C)=C(C)C)cc1 [Example F33, (3S)-3-{4-[(2,3-dimethylbut-2-en-1-yl)oxy]phenyl}hex-4-ynoic acid] |  | MIN6Insulin @10 uM [2]: 3.895; AUC for glucose (0-540 min.) [1]: 19393.1; AUC for insulin (0-180 min.) [1]: 519.1 |
| C=C(C)/C=C/COc1ccc([C@@H](C#CC)CC(=O)O)cc1 [Example F34, (3S)-3-(4-{[(2E)-4-methylpenta-2,4-dien-1-yl]oxy}phenyl)hex-4-ynoic acid] | A (>120% PTAK-875) | melting point: 94.7 to 95.7 °C |
| CC#C[C@@H](CC(=O)O)c1ccc(OCCCC(F)(F)F)cc1 [Example F39, (3S)-3-[4-(4,4,4-trifluorobutoxy)phenyl]hex-4-ynoic acid] | B (81-120% PTAK-875) |  |
| CC#C[C@@H](CC(=O)O)c1ccc(OCCCCC(F)(F)F)cc1 [Example F40, (3S)-3-{4[(5,5,5-trifluoropentyl)oxy]phenyl}hex-4-ynoic acid] | B (81-120% PTAK-875) |  |
| CC#C[C@@H](CC(=O)O)c1ccc(OCc2cccc(-c3ccc(C(F)(F)F)cc3)c2)cc1 [Example R2, (3S)-3-[4-({3-[4-(trifluoromethyl)phenyl]phenyl}methoxy)phenyl]-hex-4-ynoic acid, reference compound] |  | MIN6Insulin @10 uM [2]: 1.567; insulin plasma level [3]: enhanced insulin plasma level |
| CC(C)C[C@H](CN)CC(=O)O [Pregabalin, reference compound] |  | Applied pressure causing the response, sick animal (neuropathic) after compound administration ([4]; 3 mg/kg p.o.): 2.04 g; Applied pressure causing the response, sick animal (neuropathic) after compound administration ([4]; 10 mg/kg p.o.): 2.65 g; Applied pressure causing the response, sick animal (neuropathic) after compound administration ([4]; 30 mg/kg p.o.): 4.11 g |
